Data taken from patent US7691578B2, “Methods and compositions for treating obesity” (Dana-Farber Cancer Institute, Inc., priority 2004, dated 2010).
“Also recorded” adds a separate entry of the source. Where two headings read alike, the source gives them in different places.

Experiments:
AMP Kinase = assay: Western blot of phosphorylated (activated) AMP Kinase in HIB1B cells; type: cell-based; conditions: 24 hours
Experimental: (§1) HIB1B brown fat cells were grown in DMEM (10% cosmic calf serum)+0.25 mg/ml penicillin/streptomycin at 37° C., 10% CO2.
(§2) In FIG. 2A, HIB1B cells were treated with 2 μM FCCP for 0-72 hours. In FIG. 2B, cells were treated with 50 μM FCCP for 0-48 hours. In FIG. 2C, cells were treated for 24 hours with either 50 μM FCCP or 500 μM AICAR, a compound that activates AMP Kinase. Protein was isolated, run on an SDS polyacrylamide gel, and transferred to a PVDF membrane, and blotted for the proteins indicated in the figures.

PGC-1α [1] = assay: Real time PCR of PGC-1α expression in 10T 1/2 fibroblasts; type: cell-based
Experimental: (§3) HIB1B brown fat cells were grown in DMEM (10% cosmic calf serum)+0.25 mg/ml penicillin/streptomycin at 37° C., 10% CO2. 10T 1/2 fibroblasts were grown in DMEM+10% fetal bovine serum+0.25 mg/ml penicillin/streptomycin at 37° C., 10% CO2.
(§4) 10T 1/2 cells were treated with 50 μM FCCP, 10 μM BAPTA, a calcium chelator, or both FCCP and BAPTA for 16 hours. RNA was extracted using trizol and gene expression was measured using real time PCR. All expression levels were adjusted to actin and then the fold induction of expression was determined using the untreated cells as the control.
(§5) 10T 1/2 fibroblasts were grown in DMEM+10% fetal bovine serum+0.25 mg/ml penicillin/streptomycin at 37° C., 10% CO2. HIB1B cells were grown in DMEM+10% cosmic calf serum+0.25 mg/ml penicillin/streptomycin at 37° C., 10% CO2.
(§6) In FIG. 11A, 10T 1/2 cells were treated with 50 μM FCCP for 16 hours; in FIG. 11B, cells were treated for 72 hours with 25 μM FCCP. RNA was extracted using trizol and gene expression was measured using real time PCR. All expression levels were adjusted to actin and then the fold induction of expression was determined using the untreated cells as the control. In FIG. 11C, 10T 1/2 cells were treated for 16 hours with 50 μM FCCP. Lactate levels were measured using a lactate kit (Trinity Biotech), cells were counted, and lactate was graphed as mg lactate per million cells. In FIG. 12, HIB1B preadipocytes were treated with 25 μM FCCP, 250 μM DNP, 750 μM DNP or 1 mM DNP. RNA was extracted and run on a 1% agarose-formaldehyde gel (30 μg of RNA per lane). The gel was transferred to a nylon membrane and was probed for PGC-1α RNA and 36B4 RNA (36B4 represents the loading control).

cytochrome c [2] = assay: Real time PCR of cytochrome c expression in 10T 1/2 fibroblasts; type: cell-based; conditions: 16 hours
Experimental: as §3, §4, §5
(§7) In FIG. 11A, 10T 1/2 cells were treated with 50 μM FCCP for 16 hours; in FIG. 11B, cells were treated for 72 hours with 25 μM FCCP. RNA was extracted using trizol and gene expression was measured using real time PCR. All expression levels were adjusted to actin and then the fold induction of expression was determined using the untreated cells as the control. In FIG. 11C, 10T 1/2 cells were treated for 16 hours with 50 μM FCCP. Lactate levels were measured using a lactate kit (Trinity Biotech), cells were counted, and lactate was graphed as mg lactate per million cells. […]

PGC-1β [3] = assay: Real time PCR of PGC-1β expression in 10T 1/2 fibroblasts; type: cell-based; conditions: 16 hours
Experimental: as §3, §4, §5, §7

ATP synthase = assay: Real time PCR of ATP synthase expression in 10T 1/2 fibroblasts; type: cell-based; conditions: 16 hours
Experimental: as §3, §4, §5, §7

COX II [4] = assay: Real time PCR of COX II expression in 10T 1/2 fibroblasts; type: cell-based; conditions: 16 hours
Experimental: as §3, §4, §5, §7

animals = conditions: large doses of DNP; cited from earlier work
PGC-1α [5] = assay: Northern blot of PGC-1α expression in HIB1B brown fat cells; type: cell-based
Experimental: as §1
(§8) In FIGS. 1A and 1B, HIB1B cells were treated with 25 μM FCCP for 0-25 hours. In FIG. 1C, HIB1B cells were treated for 5 hours with 0-200 μM FCCP. RNA was extracted using trizol and was resuspended in ddH2O. RNA was run on a 1% agarose-formaldehyde gel, and 30 ug of RNA was used per lane. 36B4 was used as the loading control.
In FIG. 5A, HIB1B cells were treated with 0-15 μM Antimycin A, a Complex III inhibitor. In FIG. 5B, cells were treated for either 5 or 10 hours with 0-50 μM Atractlyoside, an adenine nucleotide transporter (ANT) inhibitor. RNA was extracted, run on a formaldehyde gel and transferred to a nylon membrane as previously described. Membranes were blotted for PGC-1α mRNA.
In FIG. 7, HIB1B cells were treated for 5 hours with 0-50 μM Ruthenium Red (RR), an inhibitor of the mitochondrial Ca^2+ uniporter, simultaneously with either 5 μM or 25 μM FCCP as indicated in the figure. Untreated cells served as a control. RNA was extracted and analyzed as previously described. Membranes were blotted for PGC-1α. 36B4 served as the loading control.
as §6

PGC-1α protein = conditions: HIB1B cells, 2 μM FCCP, up to 72 hours
Experimental: as §1, §2

cytochrome c protein = conditions: HIB1B cells, 50 μM FCCP, up to 48 hours
Experimental: as §1, §2

HIB1B brown fat cells = conditions: 25 μM FCCP
Experimental: as §1
In FIG. 4, HIB1B cells were treated for either 5 or 10 hours with either 0 μM or 25 μM FCCP. ATP levels were measured using the Calbiochem ATP assay kit. For analysis, ATP levels were compared to those of untreated cells at the 5 and 10 hour time points.

PGC-1β [6] = conditions: Fao cells
Experimental: (§9) Fao liver hepatoma cells were grown in RPMI (10% fetal bovine serum)+0.25 mg/ml penicillin/streptomycin at 37° C., 5% CO2.
(§10) In FIG. 6A, Fao liver hepatoma cells were treated with 2 μM FCCP for 0-48 hours. In FIGS. 6B and 6C, cells were treated for 24 hours with either 2 μM or 25 μM FCCP. RNA was extracted and analyzed as previously described.

UCP2 = conditions: Fao cells, 24 hour treatment, 2 μM and 25 μM FCCP
Experimental: as §9, §10

[7] = in vivo; cited from earlier work
PGC-1β [8] = conditions: HIB1B cells
Experimental: as §1, §8

PGC-1β [9] = conditions: PGC-1α knock out preadipocytes, 25 μM FCCP, 24 hours
Experimental: (§11) Wild type and PGC-1α knock out preadipocytes were grown in DMEM+20% fetal bovine serum+0.25 mg/ml penicillin/streptomycin at 37° C., 10% CO2.
(§12) Wild type and PGC-1α knock out preadipocytes were treated for 24 hours with or without 25 μM FCCP. RNA was extracted using trizol and gene expression was measured using real time PCR. All expression levels were adjusted to actin and then the fold induction of expression was determined using the untreated cells as the control.

ERRα = conditions: PGC-1α knock out preadipocytes, 25 μM FCCP, 24 hours
Experimental: as §11, §12

[10] = test system: adenine nucleotide translocase (ANT); conditions: PGC-1α knock out preadipocytes, 25 μM FCCP, 24 hours
Experimental: as §11, §12

cytochrome c [11] = conditions: PGC-1α knock out preadipocytes, 25 μM FCCP, 24 hours
Experimental: as §11, §12

COX II [12] = conditions: PGC-1α knock out preadipocytes, 25 μM FCCP, 24 hours
Experimental: as §11, §12

NRF-1 [13] = conditions: PGC-1α knock out preadipocytes, 25 μM FCCP, 24 hours
Experimental: as §11, §12

PGC-1α [14] = conditions: HIB1B cells, 8 hours
Experimental: as §1
In FIG. 3, cells were treated for 8 hours as indicated on the figure. RNA was extracted as previously described and quantified using real time PCR. PGC-1α mRNA levels were normalized to TBP prior to analysis.

10T 1/2 fibroblasts = conditions: 50 μM FCCP, 16 hours
Experimental: as §5, §6

NRF-1 [15] = conditions: 10T 1/2 fibroblasts, 50 μM FCCP, 16 hours
Experimental: as §5, §6

[16] = 10T 1/2 cells, 10 μM BAPTA with 50 μM FCCP
[17] = 10T 1/2 fibroblasts, 50 μM FCCP
[18] = 5 hours, increasing doses of FCCP (0-200 μM)

Experimental for mice: The procedures to be used in these experiments are as follows: IP injections of the chemical uncoupling agent FCCP are performed daily (see experimental design for dose and time information). The body temperature of the mice is measured one hour after injections so as to monitor pain and distress. If the temperature rises above 42 degrees the mice are sacrificed. The following tissues are collected from euthanized mice: brown fat, skeletal muscle, and liver, which contribute the most to standard metabolic rate. In addition, heart, pancreas, large intestine, small intestine, gall bladder, spleen, brain, testes, and ovary are collected. Tissues are used to assess PGC-1 gene expression and protein levels.
The maximum dose of FCCP that is used in this experiment is 0.5 mg/kg/day. The experiment is performed in C57 BL/6J and ob/ob (C57 BL/6J background) mice ordered from Jackson Laboratories.
Mice receive one IP injection of FCCP daily. The following experiment is repeated three times for statistical significance.
Body temperature is measured one hour after injections and weight is recorded every three days. Mice are sacrificed to avoid pain if the body temperature rises above 42 degrees. After the treatments as described above the mice are sacrificed using cervical dislocation with pre-anesthesia. […]

NC(=O)c1ncn([C@@H]2O[C@H](CO)[C@@H](O)[C@H]2O)c1N [AICAR]
AMP Kinase activation (phospho-AMP kinase) (AMP Kinase; 500 μM AICAR, positive control): activation

O=C(O)CN(CC(=O)O)c1ccccc1OCCOc1ccccc1N(CC(=O)O)CC(=O)O [BAPTA]
effect on FCCP-mediated induction of PGC-1α (PGC-1α [1]; 10T 1/2 cells, 10 μM BAPTA with 50 μM FCCP, 16 hours): blocked | effect on FCCP-mediated induction of cytochrome c (cytochrome c [2]; [16]): blocked | effect on FCCP-mediated induction of PGC-1β (PGC-1β [3]; [16]): blocked | effect on FCCP-mediated induction of ATP synthase (ATP synthase; [16]): blocked | effect on FCCP-mediated induction of COX II (COX II [4]; [16]): blocked

O=[N+]([O-])c1ccc(O)c([N+](=O)[O-])c1 [DNP, 2,4-dinitrophenol]
toxic effect of large doses (animals): almost immediate onset of rigor mortis | PGC-1α expression (PGC-1α [5]; 5 hours, three concentrations of DNP (250 μM, 750 μM, 1 mM)): caused an increase; also recorded: induces

N#CC(C#N)=NNc1ccc(OC(F)(F)F)cc1 [FCCP, carbonylcyanide-p-trifluoromethoxyphenylhydrazone]
PGC-1α protein expression (PGC-1α protein): induced | cytochrome c protein levels (cytochrome c protein): induced | drop in cellular ATP levels (HIB1B brown fat cells; 5 hours, versus untreated cells): 25% | ATP levels below that of untreated cells (HIB1B brown fat cells; 10 hours): approximately 20% | PGC-1β expression levels (PGC-1β [6]; 2 μM FCCP, after approximately 24 hours): increased | PGC-1β expression levels (PGC-1β [6]; 24 hour treatment, 2 μM and 25 μM FCCP): increased | UCP 2 expression levels (UCP2): increased | expression of the PGC-1 coactivators and their target genes after long term treatment (PGC-1α [1]; 10T 1/2 fibroblasts, 25 uM FCCP, 72 hours): remain elevated | PGC-1α expression (PGC-1α [1]; 10T 1/2 fibroblasts, 50 μM FCCP, 16 hours): induced | LD50 for FCCP relative to that of DNP [7]: about 5 times less | cytochrome c expression (cytochrome c [2]; [17]): induced | PGC-1α RNA and protein levels in brown fat and muscle tissue (mice; daily IP injection of FCCP): increase | body weight and adiposity (mice; safe dose of FCCP, daily IP injection): decrease | PGC-1β expression (PGC-1β [3]; [17]): induced | PGC-1β expression levels (PGC-1β [8]; 25 μM FCCP, after 10-15 hours, remained induced until 25 hours): induced | PGC-1β expression levels (PGC-1β [8]; [18]): did not increase | ATP synthase expression (ATP synthase; [17]): induced | FCCP induction of PGC-1β in cells that lack PGC-1α (PGC-1β [9]): blocked | FCCP induction of ERRα in cells that lack PGC-1α (ERRα): blocked | FCCP induction of adenine nucleotide translocase (ANT) in cells that lack PGC-1α [10]: blocked | FCCP induction of cytochrome c in cells that lack PGC-1α (cytochrome c [11]): blocked | FCCP induction of COX II in cells that lack PGC-1α (COX II [12]): blocked | FCCP induction of NRF-1 in cells that lack PGC-1α (NRF-1 [13]): blocked | induction of PGC-1 expression levels, real time PCR (PGC-1α [14]; 25 μM FCCP): 5.5 fold | increase in PGC-1α expression, real time PCR (PGC-1α [14]; 25 μM and 50 μM FCCP): 5-6 fold | induction of PGC-1α levels, real time PCR (PGC-1α [14]; 50 μM FCCP): 5 fold | COX II expression (COX II [4]; [17]): induced | lactate levels (10T 1/2 fibroblasts): induced | NRF-1 expression (NRF-1 [15]): induced | AMP Kinase activation (phospho-AMP kinase) (AMP Kinase; 50 μM FCCP): activated | PGC-1α expression levels (PGC-1α [5]; 25 μM FCCP, after 5 hours, sustained for 20 additional hours): induced | PGC-1α expression levels (PGC-1α [5]; [18]): increased

N.N.N.N.N.N.N.N.N.N.N.N.N.N.[Cl-].[Cl-].[Cl-].[Cl-].[Cl-].[Cl-].[O-2].[O-2].[Ru+3].[Ru+3].[Ru+4] [Ruthenium Red]
effect on FCCP-mediated induction of PGC-1α expression (PGC-1α [5]; 5 hours, 0-50 μM Ruthenium Red with 5 μM or 25 μM FCCP, reduced at 5, 10 and 25 μM RR): blocked part

C=C1[C@@H]2CC[C@H]3[C@]4(C)C[C@H](O[C@@H]5O[C@H](CO)[C@@H](OS(=O)(=O)O)[C@H](OS(=O)(=O)O)[C@H]5OC(=O)CC(C)C)C[C@@H](C(=O)O)[C@H]4CC[C@]3(C2)[C@H]1O [atractyloside]
PGC-1α expression (PGC-1α [5]; 5 μM atractyloside, 10 hours): increased | PGC-1α expression (PGC-1α [5]; 50 μM atractyloside, 5 hours): increased

Antimycin A
PGC-1α expression (PGC-1α [5]; 5 μM Antimycin A): increased | PGC-1α expression levels (PGC-1α [5]; 10 μM Antimycin): increase
